Assay results as given in patent US20190105337A1, “METHODS OF TREATING BACTERIAL INFECTIONS” (priority 2015, published 2019).
Like-named read-outs stand apart in the source and are kept apart here.

Tests used:
clinical [1] = conditions: human, in vivo
Experimental: All infusions were administered over 3 hours. Intensive plasma and urine PK sampling was obtained after dosing and assayed using validated HPLC/MS methods.

[2] = Example 6: noncompartmental plasma pharmacokinetics after third dose of the Combination (2 g meropenem/2 g Compound I q8h); conditions: for AUC(0-t) / clearance / Cmax / Tmax / half-life: both, human, plasma, intravenous; for AUC(0-t): AUC0-8, meropenem 2 g q8h; for clearance: CL; for clearance / Cmax / Tmax / Vss: meropenem 2 g q8h; for half-life: t1/2, meropenem 2 g q8h
Experimental: (§1) A total of twenty-five (n=25) male and female subjects who met the study entry criteria and completed all phases of the pharmacokinetic study were included in this pharmacokinetic analysis. […] Blood samples were collected to measure drug concentrations in plasma prior to (time 0), and at 1.5, 2.95, 3.083, 3.25, 3.5, 4, 6, and 8 hours after the start of a 3-hour intravenous infusion of the third combination dose.
(§2) (Reports MC14B-0013, MC14B-0015, MC14I-011, and MC14I-0012). The urea concentrations in plasma and BAL were performed with a microplate-based method with an 0-phthalaldehyde chromogenic solution at MicroConstants, Inc., San Diego, Calif.
Peak plasma concentration (Cmax) and time to Cmax (Tmax) were read from the observed plasma concentration-time profile after the start of the intravenous infusion of the third Combination dose. Area under the plasma concentration-time curve over 8 hours (AUC0-8) after the third dose was calculated with the linear-log trapezoidal rule (WinNonlin®, version 6.3, Pharsight Corporation, Cary, N.C.). The elimination rate constant (β) was determined by nonlinear least-squares regression. Elimination half-life (t½) was calculated by dividing β into the natural logarithm of two.

clinical [3] = conditions: human, in vivo; remark: listed apart in the source
Experimental: The combination of both drugs was administered on day 7. All drugs were infused over 3 hours. Plasma and urine samples were obtained and assayed using validated HPLC/MS methods.

Plasma protein binding = assay type: in vitro ADME
clinical [4] = conditions: both, human, in vivo
Experimental: as §1
Urea has been commonly used as an endogenous marker to estimate the apparent volume of ELF. Blood samples to determine plasma urea concentrations were obtained just prior to scheduled bronchoscopy. Aliquots of BAL were obtained to determine urea concentrations in BAL and cell count with differential. The standardized bronchoscopy with BAL procedure for the collection of intrapulmonary samples has been previously described in the references listed below.
as §2
The calculations of ELF volume and drug concentrations in ELF and AM were performed with BAL supernatant and pulmonary (alveolar) cells (“cell pellet”) from aspirates recovered from the 2nd, 3rd, and 4th instillations (BAL2). The concentration of drug (ABXELF) in the epithelial lining fluid (ELF) was determined as follows:
[…]
VELF is derived from the following:
where UreaBAL is the concentration of urea in BAL fluid and UreaP is the concentration of urea in plasma.
The concentration of drug (ABXAM) in the alveolar cells (AC) was determined as follows:
Differential cell count was performed to determine the number of macrophages present. A mean macrophage cell volume of 2.42 μl/106 cells was used in the calculations for volume of alveolar cells in the pellet suspension.
The concentration ratios of ELF and AM to the simultaneous plasma concentrations were calculated for each subject and summarized for each group at each sampling time. […] The 8-hour sampling time was also used as a value at time zero for determining the area term of plasma, ELF, and AM. The AUC0-8 for each matrix was determined with the linear trapezoidal method. The ratio of AUC0-8 of ELF to plasma and AM to plasma were calculated.

[5] = Ratio of ELF to total Plasma concentration

C[C@@H](O)[C@H]1C(=O)N2C(C(=O)O)=C(S[C@@H]3CN[C@H](C(=O)N(C)C)C3)[C@H](C)[C@H]12 [meropenem, Meropenem]
AUC(0-∞) (clinical [1]): 130.34 µg·h/mL | Cmax (clinical [1]): 42540 ng/mL | half-life (clinical [1]; Half-Life): 0.98 h | clearance (clinical [1]; Plasma Clearance): 334 mL/min | Vd (clinical [1]; Vss): 25.9 L | AUC(0-t) ([2]; 1.5-hour BAL Sampling Group): 168 ± 41.7 µg·h/mL | AUC(0-t) ([2]; 3.25-hour BAL Sampling Group): 184 ± 29.7 µg·h/mL | AUC(0-t) ([2]; 4-hour BAL Sampling Group): 196 ± 33.5 µg·h/mL | AUC(0-t) ([2]; 6-hour BAL Sampling Group): 197 ± 38.7 µg·h/mL | AUC(0-t) ([2]; 8-hour BAL Sampling Group): 182 ± 28.7 µg·h/mL | AUC(0-t) ([2]; All Subjects): 186 ± 33.6 µg·h/mL | clearance ([2]; 1.5-hour BAL Sampling Group): 208 mL/min | clearance ([2]; 3.25-hour BAL Sampling Group): 185 mL/min | clearance ([2]; 4-hour BAL Sampling Group): 175 mL/min | clearance ([2]; 6-hour BAL Sampling Group): 173 mL/min | clearance ([2]; 8-hour BAL Sampling Group): 187 mL/min | clearance ([2]; All Subjects): 185 mL/min | Cmax ([2]; 1.5-hour BAL Sampling Group): 56900 ± 19300 ng/mL | Cmax ([2]; 3.25-hour BAL Sampling Group): 57900 ± 7500 ng/mL | Cmax ([2]; 4-hour BAL Sampling Group): 59600 ± 7400 ng/mL | Cmax ([2]; 6-hour BAL Sampling Group): 59400 ± 11500 ng/mL | Cmax ([2]; 8-hour BAL Sampling Group): 57300 ± 9000 ng/mL | Cmax ([2]; All Subjects): 58200 ± 10800 ng/mL | Tmax ([2]; 1.5-hour BAL Sampling Group): 2.95 ± 0.01 h | Tmax ([2]; 3.25-hour BAL Sampling Group): 3 ± 0.07 h | Tmax ([2]; 4-hour BAL Sampling Group): 2.98 ± 0.06 h | Tmax ([2]; 6-hour BAL Sampling Group): 2.98 ± 0.06 h | Tmax ([2]; 8-hour BAL Sampling Group): 2.98 ± 0.06 h | Tmax ([2]; All Subjects): 2.98 ± 0.06 h | half-life ([2]; 1.5-hour BAL Sampling Group): 0.98 ± 0.05 h | half-life ([2]; 3.25-hour BAL Sampling Group): 1.04 ± 0.13 h | half-life ([2]; 4-hour BAL Sampling Group): 1.07 ± 0.15 h | half-life ([2]; 6-hour BAL Sampling Group): 1.12 ± 0.24 h | half-life ([2]; 8-hour BAL Sampling Group): 0.96 ± 0.13 h | half-life ([2]; All Subjects): 1.03 ± 0.15 h | Vss ([2]; 1.5-hour BAL Sampling Group): 17.5 ± 2.5 L | Vss ([2]; 3.25-hour BAL Sampling Group): 16.7 ± 2.6 L | Vss ([2]; 4-hour BAL Sampling Group): 15.3 ± 2.1 L | Vss ([2]; 6-hour BAL Sampling Group): 16.1 ± 3.4 L | Vss ([2]; 8-hour BAL Sampling Group): 15.6 ± 2.8 L | Vss ([2]; All Subjects): 16.3 ± 2.6 L | AUC(0-∞) (clinical [3]): 130.34 µg·h/mL | Cmax (clinical [3]): 42540 ng/mL | half-life (clinical [3]; Half-Life): 0.98 h | clearance (clinical [3]; Plasma Clearance): 334 mL/min | Vd (clinical [3]; Vss): 25.9 L | fraction unbound (Plasma protein binding): 0.94 | fraction unbound (Plasma protein binding; human): 0.98 | AUC(0-t) (clinical [4]; AUC0-8 based on mean ELF concentrations): 112 µg·h/mL | AUC(0-t) (clinical [4]; AUC0-8 based on median ELF concentrations): 102 µg·h/mL | concentration at 1.5 h (clinical [4]; Concentration in ELF): 21400 ± 4000 ng/mL | concentration at 3.25 h (clinical [4]; Concentration in ELF): 28300 ± 6700 ng/mL | concentration at 4 h (clinical [4]; Concentration in ELF): 16100 ± 4800 ng/mL | concentration at 6 h (clinical [4]; Concentration in ELF): 7520 ± 5290 ng/mL | concentration at 8 h (clinical [4]; Concentration in ELF): 2510 ± 1130 ng/mL | concentration at 1.5 h (clinical [4]; Concentration in Plasma): 41200 ± 5000 ng/mL | concentration at 3.25 h (clinical [4]; Concentration in Plasma): 47700 ± 7300 ng/mL | concentration at 4 h (clinical [4]; Concentration in Plasma): 23800 ± 4300 ng/mL | concentration at 6 h (clinical [4]; Concentration in Plasma): 7240 ± 2790 ng/mL | concentration at 8 h (clinical [4]; Concentration in Plasma): 1360 ± 510 ng/mL | Kp at 1.5 h (clinical [4]; [5]): 0.525 ± 0.107 | Kp at 3.25 h (clinical [4]; [5]): 0.59 ± 0.079 | Kp at 4 h (clinical [4]; [5]): 0.705 ± 0.302 | Kp at 6 h (clinical [4]; [5]): 1.04 ± 0.475 | Kp at 8 h (clinical [4]; [5]): 2.13 ± 1.37 | Kp (clinical [4]; intrapulmonary penetration based on AUC0-8 of ELF and total plasma concentrations): ~0.63 | Kp (clinical [4]; intrapulmonary penetration, unbound plasma concentrations): 0.65 | Kp (clinical [4]; mean ratios of ELF to simultaneous plasma concentrations (range)): 0.525 to 2.13 | Kp (clinical [4]; ratio of ELF to total plasma concentrations based on mean AUC0-8): 0.63 | Kp (clinical [4]; ratio of ELF to total plasma concentrations based on median AUC0-8): 0.58 | Kp (clinical [4]; ratio of ELF to unbound plasma concentrations based on mean AUC0-8): 0.65 | Kp (clinical [4]; ratio of ELF to unbound plasma concentrations based on median AUC0-8): 0.59
